The text below walks through data of US20240382510A1, “NEW COMBINATION DRUG FOR TREATING CORONAVIRUS INFECTIONS, PHARMACEUTICAL COMPOSITION AND USE THEREOF” (priority 2021, published 2024).

The conditions of data set [1]: rats.
Experimental: Among them, group 4 was converted according to the clinical administration of 3 tablets, and the remaining experimental groups were converted according to the clinical administration of 4 tablets.
A single dose was administered to healthy SD rats, and blood was taken according to the blood collection plan. After sample processing, analysis, and data processing, the plasma concentration-time curves of each group were drawn respectively. The pharmacokinetic parameters of each group of medicines in rats was calculate by WinNonlin 6.1 software.
For data set [2] the following is noted: literature values; cited from earlier work.
Data set [3] concerns SARS-CoV-2. The note with it: anti-SARS-CoV-2, literature values; cited from earlier work.
In data set [4] the test system is SARS-CoV-2 (hCoV-19/China/CAS-B001/2020). Description: Synergistic anti-SARS-CoV-2 activity (Example 4), CPE in Vero-E6 cells. The class given is cell-based. Conditions: Severe acute respiratory syndrome coronavirus 2, Vero C1008; wild strain hCoV-19/China/CAS-B001/2020, Vero-E6, CPE after 72 hours.
Data set [5] in a line: in vivo. Conditions: plasma. The class given is in vitro ADME. The text has this: In addition, due to the high plasma protein binding rate of atovaquone and nitazoxanide, both about 99% (refer to Beerahee M Clinical pharmacology of atovaquone and proguanil hydrochloride. [J]. Journal of Travel Medicine, 1999, 6 suppl 1:S13-7.; Alinia™ PRESCRIBING INFORMATION-FDA.). The present application also studied and compared the in vivo plasma protein binding rate of atovaquone and nitazoxanide combined administration and separate administration. […] Compared with alone administration, combined administration will not affect the distribution and elimination of the two drugs in vivo, and competition for plasma protein binding site by one drug will not result in an increase in the free form of another drug.

For data set [6] the following is noted: literature (Beerahee 1999; Alinia prescribing information); cited from earlier work.
Where [7] appears, read: atovaquone combined with nitazoxanide, read-out: average plasma protein binding rate, combined administration group (converted).
Where [8] appears, read: separate administration, read-out: average plasma protein binding rate, separate administration group (converted).

Like-named read-outs stand apart in the source and are kept apart here.

With `NC(=O)c1ncn([C@@H]2O[C@H](CO)[C@@H](O)[C@H]2O)n1` [RBV, 1-[(2R,3R,4S,5R)-3,4-dihydroxy-5-(hydroxymethyl)Oxolane-2-yl]-1H-1,2,4-triazole-3-carboxamide], the “plasma concentration administered alone vs in combination, within 0.5-4 hours after administration” value in data set [1] (13.9 mg/kg, group 3 vs group 5 and group 4) is on record as “greater”. The “exposure level (AUC0-24h) administered alone compared with combination at the same dose” value in data set [1] (single dose) was “slightly greater”.

Take `CC(C)C(=O)OC[C@H]1O[C@@H](n2ccc(NO)nc2=O)[C@H](O)[C@@H]1O` [Molnupiravir]: the Plasma concentration in data set [2] was 2090 nM. In addition, the 50% effective concentration (EC50) in data set [3] is 320 to 2030 nM.

Consider `CC(=O)Oc1ccccc1C(=O)Nc1ncc([N+](=O)[O-])s1` [NTZ, o-[N-(5-nitro-1,3-thiazol-2-yl)carbamoyl]phenol acetate], for which, in data set [4], the EC50 was 4900 nM. Moreover, the fraction unbound is 0.0016 in data set [5] (setting [7]) and 0.0105 in data set [5] (setting [8]). In addition, the “plasma protein binding rate” value in data set [6] is “about 99%”. Further, the “plasma concentration administered alone vs in combination at the same dose” value in data set [1] (single dose 46.6 mg/kg, group 1 vs group 5) is listed as “no obvious difference”.

`O=C1C(O)=C([C@H]2CC[C@H](c3ccc(Cl)cc3)CC2)C(=O)c2ccccc21` [ATQ, 2-(trans-4-(4-chlorophenyl)cyclohexyl)-3-hydroxy-1,4-naphthalenedione]: in data set [4], the EC50 amounted to 2040 nM. Besides, the fraction unbound in data set [5] (setting [7]) was 0.0014. The fraction unbound in data set [5] (setting [8]) is 0.0016. Moreover, in data set [6], the “plasma protein binding rate” value is “about 99%”. Also, in data set [1] (single dose), the “exposure level (AUC0-24h) administered alone compared with combination at the same dose” value is “similar”; the “plasma concentration trend at 16-24 hours, administered alone” value is on record as “downward trend”; the “plasma concentration trend at 16-24 hours, combined administration” value is on record as “flat or rising trend”.
